pIC50: −log10 of the molar value. Read-outs that look alike come from different tables or passages of the source.
System: NLRP3
Test: IL-1β secretion assay in PMA-differentiated, LPS/nigericin-stimulated THP-1 cells (384-well, ELISA read-out)
Format: cell-based, human
Procedure: Compounds as provided herein were tested in the following assay. Cell culture medium employed contained RPMI 1640 medium (89%), FBS (10%), Pen/Strep (1%), and 2-mercaptoethanol (0.05 mM). Freezing medium was made up of 90% FBS and 10% DMSO. THP-1 cells were removed from the liquid nitrogen and placed into a 37° C. water bath to thaw, until signs of ice dissipated. The cells were then added to 9 mL of warm cell culture medium and centrifuged for 5 minutes at 1000 rpm. The supernatant was discarded, and the cells were resuspended in new cell culture medium. THP-1 cells were then split and cultured in the cell culture medium, being passaged every 2-3 days with the cell density will be maintained between 5×10^5 and 1.5×10^6 viable cells/mL.
To freeze, cells were resuspended with fresh freezing medium, adjusting the cell density to 5×10^6 cells/mL. The cell suspension was partitioned into 1 mL aliquots per vial, and the vials were transferred to a −80° C. freezer. After one day at −80° C., the cell vials were transferred to liquid nitrogen freezer for storage.
PMA was dissolved in DMSO to make a stock solution at 5 mg/mL and stored in 10 μl aliquots at −20° C. for single use. PMA is added to normal growth medium. LPS was diluted with 1 mL of water solution to provide a 1 mg/mL stock solution and stored in 15 μl aliquots at −20° C. for single use. Nigericin is diluted in ice cold 100% ethanol to 5 mg/mL (6.7 mM) and stored in 75 μL aliquots at −20° C. for single use. Serum-free media contains RPMI 1640 medium (99%), Pen/Strep (1%), and 2-mercaptoethanol (0.05 mM). The two control conditions used to qualify and normalize test compound dose-response curves were as follows: High Control=25 ng/mL LPS, 5 μM Nigericin, 0.5% DMSO, Low Control=25 ng/mL, LPS, 0.5% DMSO.
THP-1 cells were diluted to provide a suspension at a concentration of 1.0×10^6 cells/mL with the total volume of suspension required to enable the desired number of assay plates. The growth media was supplemented with PMA (5 ng/mL final concentration) and the cells were incubated at 37° C. under a humidified atmosphere of 5% CO2 for 40 h.
All media was carefully aspirated from each culture flask. The cells were washed carefully with 1×DPBS. The cells were then briefly digested with trypsin LE for 5 minutes at 23° C., and immediately resuspended in cell growth media. After resuspension, the cells were centrifuged at 1000 rpm for 3 minutes and the supernatant was discarded. The cells were resuspended in DPBS and once again centrifuged at 1000 rpm for 5 minutes. The supernatant was discarded and the cell pellet was resuspended in serum-free media supplemented with LPS (25 ng/mL final concentration) to enable the distribution of 30K THP-1 cells within 45 μL of media into each well of 384-well PDL-coated plates. The 384-well plates were then incubated at 37° C. under a humidified atmosphere of 5% CO2 for 2 h. Following this period, test compounds were dispensed by Tecan across the desired concentration range with all wells normalized to a final 0.5% DMSO concentration. The plates were then incubated at 37° C. under a humidified atmosphere of 5% CO2 for 1 h. Following this period, 5 μL of the […] was added to each of the appropriate wells and plates were centrifuged at 1000 rpm for 30 seconds. The plates were the immediately reintroduced to the incubator at 37° C. under a humidified atmosphere of 5% CO2 for 2 h. After this time, 35 μL/well of supernatant was collected and transferred into v-bottom plate and centrifuged at 1000 rpm for 1 minute. These supernatant aliquots were analyzed using an IL-Iβ detection kit as described below. If needed, the test samples could be snap frozen and stored at −80° C. until analyzed.
To prepare each ELISA plate, capture antibody (mAb Mt175) was diluted with PBS to a final concentration of 2 μg/mL and then 20 μL of this solution was added to each well of the ELISA plate. Each plate was allowed to incubate overnight at 4° C.

[1] = Homo sapiens, THP-1, IL-1β secretion, PMA-differentiated THP-1 cells, LPS then nigericin stimulation, ELISA read at 450 nm, read-out: Activity
[2] = Table 4, IL-1β secretion, LPS/nigericin-stimulated THP-1 cells, read-out: IC50
[3] = IL-1β secretion, PMA-differentiated THP-1 cells, LPS then nigericin stimulation, ELISA read at 450 nm, read-out: Activity
[4] = Homo sapiens, THP-1, Table 4, IL-1β secretion, LPS/nigericin-stimulated THP-1 cells, read-out: IC50

O=C(CN1C[C@@]2(C[C@@H]2F)c2cc(C(F)(F)F)ccc2C1=O)Nc1ncccn1 (single isomer, unassigned) [Example 240, 2-[(2′s,4r)-2′-fluoro-1-oxo-6-(trifluoromethyl)spiro[3H-isoquinoline-4,1′-cyclopropane]-2-yl]-N-pyrimidin-2-ylacetamide]
pIC50 [1]: > 5.00
pIC50 [2]: 5.91

O=C(CN1C[C@@]2(C[C@@H]2F)c2cc(C(F)(F)F)ccc2C1=O)Nc1ncccn1 (single isomer, unassigned) [Example 241, 2-[(2′s,4r)-2′-fluoro-1-oxo-6-(trifluoromethyl)spiro[3H-isoquinoline-4,1′-cyclopropane]-2-yl]-N-pyrimidin-2-ylacetamide]
pIC50 [3]: > 5.00
pIC50 [2]: 6.87

O=C(CN1C[C@@]2(C[C@@H]2F)c2cc(C(F)(F)F)ccc2C1=O)Nc1ncc(C(F)(F)F)cn1 (single isomer, unassigned) [Example 242, 2-[(2′s,4r)-2′-fluoro-1-oxo-6-(trifluoromethyl)spiro[3H-isoquinoline-4,1′-cyclopropane]-2-yl]-N-[5-(trifluoromethyl)pyrimidin-2-yl]acetamide]
pIC50 [1]: > 5.00
pIC50 [2]: 5.89

O=C(CN1C[C@@]2(C[C@@H]2F)c2cc(C(F)(F)F)ccc2C1=O)Nc1ncc(C(F)(F)F)cn1 (single isomer, unassigned) [Example 243, 2-[(2′s,4r)-2′-fluoro-1-oxo-6-(trifluoromethyl)spiro[3H-isoquinoline-4,1′-cyclopropane]-2-yl]-N-[5-(trifluoromethyl)pyrimidin-2-yl]acetamide]
pIC50 [3]: > 5.00
pIC50 [2]: 7.02

Cc1cnc(NC(=O)CN2C[C@@]3(C[C@@H]3F)c3cc(C(F)(F)F)ccc3C2=O)nc1 (single isomer, unassigned) [Example 244, 2-[(2′s,4r)-2′-fluoro-1-oxo-6-(trifluoromethyl)spiro[3H-isoquinoline-4,1′-cyclopropane]-2-yl]-N-(5-methylpyrimidin-2-yl)acetamide]
pIC50 [1]: > 5.00
pIC50 [2]: 7.12

Cc1cnc(NC(=O)CN2C[C@@]3(C[C@@H]3F)c3cc(C(F)(F)F)ccc3C2=O)nc1 (single isomer, unassigned) [Example 245, 2-[(2′s,4r)-2′-fluoro-1-oxo-6-(trifluoromethyl)spiro[3H-isoquinoline-4,1′-cyclopropane]-2-yl]-N-(5-methylpyrimidin-2-yl)acetamide]
pIC50 [3]: > 5.00
pIC50 [2]: 6.03

O=C(CN1CC2(CC2)c2cc([C@@]3(F)C[C@@H]3F)ccc2C1=O)Nc1ncc(F)cn1 (single isomer, unassigned) [Example 251, 2-[6-[(1r,2r)-1,2-difluorocyclopropyl]-1-oxospiro[3H-isoquinoline-4,1′-cyclopropane]-2-yl]-N-(5-fluoropyrimidin-2-yl)acetamide]
pIC50 [1]: > 5.00
pIC50 [4]: 6.26

O=C(CN1CC2(CC2)c2cc([C@@]3(F)C[C@@H]3F)ccc2C1=O)Nc1ncc(F)cn1 (single isomer, unassigned) [Example 252, 2-[6-[(1r,2r)-1,2-difluorocyclopropyl]-1-oxospiro[3H-isoquinoline-4,1′-cyclopropane]-2-yl]-N-(5-fluoropyrimidin-2-yl)acetamide]
pIC50 [3]: > 5.00
pIC50 [2]: 6.34

O=C(CN1CC2(CC2)c2cc([C@@]3(F)C[C@H]3F)ccc2C1=O)Nc1ncc(F)cn1 (single isomer, unassigned) [Example 253, 2-[6-[(1r,2s)-1,2-difluorocyclopropyl]-1-oxospiro[3H-isoquinoline-4,1′-cyclopropane]-2-yl]-N-(5-fluoropyrimidin-2-yl)acetamide]
pIC50 [1]: > 5.00
pIC50 [4]: 6.22

O=C(CN1CC2(CC2)c2cc([C@@]3(F)C[C@H]3F)ccc2C1=O)Nc1ncc(F)cn1 (single isomer, unassigned) [Example 254, 2-[6-[(1r,2s)-1,2-difluorocyclopropyl]-1-oxospiro[3H-isoquinoline-4,1′-cyclopropane]-2-yl]-N-(5-fluoropyrimidin-2-yl)acetamide]
pIC50 [3]: > 5.00
pIC50 [2]: 6.36

Reference: patent US20230416205A1, “COMPOUNDS, COMPOSITIONS, AND METHODS” (Denali Therapeutics Inc, priority 2020, published 2023)
